Test results: patent publication EP4613329A1, “COMPOUND FOR INHIBITING BRD PROTEIN” (Benobio Co., Ltd., priority 2024, dated 2025)

How the values were obtained:
[1] = molecular target: T1, BRD2 (BD1) (Homo sapiens, UniProt P25440); experiment: Binding inhibitory effect on BRD2 protein (AlphaScreen, GST-BRD2 (BD1) / biotinylated acetyl-histone H4 peptide); details: 100 nM GST-BRD2 (BD1), 100 nM biotinylated acetyl-histone H4 (Lys5, 8, 12, 16) peptide
T1 construct: a bromodomain of BRD2 (BD1) and BRD3 (BD1), one of the BRD protein family

[2] = molecular target: T2, BRD3 (BD1) (Homo sapiens, UniProt Q15059); experiment: Binding inhibitory effect on BRD3 protein (same manner as Experimental Example 1-1)
T2 construct: a bromodomain of BRD2 (BD1) and BRD3 (BD1), one of the BRD protein family; GST

[3] = tested on: retinal degeneration mouse model; experiment: Electroretinogram (ERG) in blue LED-induced retinal degeneration mouse model; assay type: in vivo, albino BALB/c mice; details: compound 24 nM, Com. Ex. 4 25 mg/kg; for Wavelength enhanced multiple compared to normal saline-treated group, Average value: average of a-wave and b-wave, intravitreal; for Wavelength enhanced multiple compared to normal saline-treated group, a-wave / Wavelength enhanced multiple compared to normal saline-treated group, b-wave: single intravitreal injection 1 hour after LED exposure
Protocol: In order to fabricate a retinal degeneration model, 7-week-old male albino BALB/c mice were used. Three mice were randomly assigned to each test group, and light and dark were maintained at 12-hour intervals. Each mouse was dark-adapted for 24 hours and then the pupils were dilated with 0.5% tropicamide and 0.5% phenylephrine hydrochloride eye drops (Santen, Osaka, Japan) 30 minutes before blue LED exposure. Unanesthetized mice were exposed to 2,000 lux of a blue LED (460 ± 10 nm) for 2 hours in a cage with reflective interiors. The light intensity was measured using an LED photometer (model TM-201L, TENMARS Electronics, Taipei, Taiwan). After exposure to blue LED, the mice were kept in the dark for 24 hours and then resumed on a 12-hour light/dark cycle for 3 days.
In a test substance control test, mice with retinal degeneration were divided into a normal saline-administered group and a compound-administered group (24 nM) of the present disclosure, and 3 mice were randomly assigned to each test group. A positive control test was divided into a normal saline-administered group and an Eyela (25 mg/kg mouse body weight)-administered group (Comparative Example 4), and three mice were randomly assigned to each test group.
All test groups were administered as a single dose by intravitreal injection 1 hour after LED exposure.
That is, mice were stored in a completely dark room for 16 hours before ERG recordings. All animals were anesthetized intraperitoneally with zolazepam (20 mg/kg) and xylazine (7.5 mg/kg). The cornea was coated with hydroxypropyl methylcellulose gel and covered with a gold ring contact electrode. Ground and reference electrodes were disposed subcutaneously on the tail and ears, respectively. Stimuli were short white flashes delivered through a Ganzfeld stimulator (UTAS-3000; LKC Technologies, Gaithersburg, MD, USA). The signal was amplified and filtered through a digital band-pass filter in the range of 5 to 300 Hz to generate a and b waves. Scotopic ERG, and rod-mediated responses were obtained at increasing light intensities of 0.025 and 3.96 cd/s • m^2. Photopic, cone-mediated responses were obtained after 5-min light adaptation to background light intensity. The recordings were obtained at the light intensity of 6.28 cd/s • m^2. Each recording was the average of three responses obtained within a 15-second stimulation interval. A-wave amplitude was measured from a baseline to the maximum a-wave peak, and b-wave amplitude was measured from the maximum a-wave peak to the maximum b-wave peak.

T2 sequence (Q15059 34-140 limits assumed, species assumed): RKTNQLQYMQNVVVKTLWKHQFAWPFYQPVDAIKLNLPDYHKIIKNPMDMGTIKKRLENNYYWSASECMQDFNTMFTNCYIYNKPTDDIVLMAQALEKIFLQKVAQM
T1 sequence (P25440 74-180 limits assumed, species assumed): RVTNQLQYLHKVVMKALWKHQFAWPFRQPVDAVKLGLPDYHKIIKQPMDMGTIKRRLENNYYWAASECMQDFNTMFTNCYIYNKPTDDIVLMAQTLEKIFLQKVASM

| SMILES | IC50 [1] [µM] | IC50 [2] [µM] | Wavelength enhanced multiple compared to normal saline-treated group, Average value [3] | Wavelength enhanced multiple compared to normal saline-treated group, a-wave [3] | Wavelength enhanced multiple compared to normal saline-treated group, b-wave [3] |
| --- | --- | --- | --- | --- | --- |
| CN1Cc2c(cccc2-c2ccccc2-c2ccc(CNCc3ccccc3)o2)C1=O [Compound 17, 2-methyl-4-(2-(5-((benzylamino)methyl)furan-2-yl)phenyl)isoindoline-1-one] | 14 | 3.61 | – | – | – |
| CNC(=O)CC1C(=O)NCCN1Cc1ccc(-c2ccccc2-c2cccc3c2CN(C)C3=O)o1 (centres unmarked) [Compound 26] | 13 | 1.38 | – | – | – |
| CCC1(C(=O)NC)CCCN(Cc2oc(-c3ccccc3-c3cccc4c3CN(C)C4=O)cc2C)C1 (centres unmarked) [Compound 40] | 10.6 | 3.96 | 1.30 | 1.16 | 1.43 |
| CN1Cc2c(cccc2-c2ccccc2-c2ccc(CN3CCC4(CC3)C(=O)N(C)CC4c3ccc(F)cc3)o2)C1=O (centres unmarked) [Compound 23, 2-methyl-4-(2-(5-(((4-(4-fluorophenyl)-2-methyl)-2λ^2,8-diazaspiro[4,5]decan-1-one)methyl)furan-2-yl)phenyl)isoindoline-1-one] | 15.3 | 1.3 | – | – | – |
| CNC(=O)C1(C)CN(C(=O)c2ccc(-c3ccccc3-c3cccc4c3CN(C)C4=O)o2)CCC1O (centres unmarked) [Compound 34] | 15.7 | 4.68 | – | – | – |
| CN1Cc2c(cccc2-c2ccccc2-c2ccc(CNCCS(C)(=O)=O)o2)C1=O [Compound 9] | 19.7 | 3.85 | – | – | – |
| CNCc1oc(-c2ccccc2-c2cccc3c2CN(C)C3=O)cc1C [Compound 38] | 12.5 | 1.12 | – | – | – |
| CNC(=O)C1(Cc2ccc(F)cc2)CCN(Cc2oc(-c3ccccc3-c3cccc4c3CN(C)C4=O)cc2C)CC1 [Compound 39, 2-methyl-4-(2-(5-((3-methyl(4-(4-fluorobenzyl)-4'-carboxamidyl)piperidine)methyl)furan-2-yl)phenyl)isoindoline-1-one] | 8.67 | 4.16 | 1.36 | 1.21 | 1.51 |
| CN1Cc2c(cccc2-c2ccccc2-c2ccc(CN3CCC(Cc4ccc(F)cc4)(C(=O)NCc4ccccc4)CC3)o2)C1=O [Compound 20] | 16.7 | 3.72 | – | – | – |
| CNC(=O)c1ccc(-c2ccccc2-c2cccc3c2CN(C)C3=O)o1 [Compound 33, 2-methyl-4-(2-(5-((methylamino)carbonyl)furan-2-yl)phenyl)isoindoline-1-one] | 11.1 | 2.39 | – | – | – |
| CNC(=O)C1(Cc2ccccc2)CCN(Cc2ccc(-c3ccccc3-c3cccc4c3CN(C)C4=O)o2)CC1 [Compound 19] | 13.9 | 1.4 | – | – | – |
| CNC(=O)C1(C)CN(Cc2oc(-c3ccccc3-c3cccc4c3CN(C)C4=O)cc2C)CCC1O (centres unmarked) [Compound 41] | 15.5 | 2.14 | – | – | – |
| CCC1(C(=O)NC)CCCN(C(=O)c2ccc(-c3ccccc3-c3cccc4c3CN(C)C4=O)o2)C1 (centres unmarked) [Compound 36] | 14.5 | 4.26 | – | – | – |
| CNC(=O)C1(Cc2ccc(F)cc2)CCN(C(=O)c2ccc(-c3ccccc3-c3cccc4c3CN(C)C4=O)o2)CC1 [Compound 32, 2-methyl-4-(2-(5-(((4-(4-fluorobenzyl)-4'-carboxamidyl)piperidine)carbonyl)furan-2-yl)phenyl)isoindoline-1-one] | 16.8 | 3.99 | – | – | – |
| CN(C)CCNCc1ccc(-c2ccccc2-c2cccc3c2CN(C)C3=O)o1 [Compound 5, 2-methyl-4-(2-(5-((dimethylaminoethylamino)methyl)furan-2-yl)phenyl)isoindoline-1-one] | 12.4 | 2.36 | – | – | – |

Further lines, results first:

| IC50 [1] [µM] | IC50 [2] [µM] | Wavelength enhanced multiple compared to normal saline-treated group, Average value [3] | Wavelength enhanced multiple compared to normal saline-treated group, a-wave [3] | Wavelength enhanced multiple compared to normal saline-treated group, b-wave [3] | SMILES |
| --- | --- | --- | --- | --- | --- |
| 13.3 | 2.4 | – | – | – | CN1Cc2c(cccc2-c2ccccc2-c2ccc(CN3CCN(c4cccc(F)c4)CC3)o2)C1=O [Compound 14, 2-methyl-4-(2-(5-(((4-(3-fluorophenyl)piperazine-1-yl)methyl))furan-2-yl)phenyl)isoindoline-1-one] |
| 13.7 | 1.19 | – | – | – | CN1Cc2c(cccc2-c2ccccc2-c2ccc(CN3CCC4(CC3)C(=O)NCC4c3ccc(F)cc3)o2)C1=O (centres unmarked) [Compound 22, 2-methyl-4-(2-(5-((4-(4-fluorophenyl)-2λ^2,8-diazaspiro[4,5]decan-1-one)methyl)furan-2-yl)phenyl)isoindoline-1-one] |
| 15.8 | 1.75 | – | – | – | CN1Cc2c(cccc2-c2ccccc2-c2ccc(CN3CCN(C(C)(C)C(N)=O)CC3)o2)C1=O [Compound 16] |
| 15.8 | 2.56 | – | – | – | CN1Cc2c(cccc2-c2ccccc2-c2ccc(CN3CCC(N(C)C)CC3)o2)C1=O [Compound 15, 2-methyl-4-(2-(5-((4-(dimethylamino)piperidine-1-yl)methyl)furan-2-yl)phenyl)isoindoline-1-one] |
| 14.6 | 4.86 | – | – | – | CN1Cc2c(cccc2-c2ccccc2-c2ccc(CN3CCC(Cc4ccccc4)(C(N)=O)CC3)o2)C1=O [Compound 29, 2-methyl-4-(2-(5-(((4-benzyl-4'-carboxamidyl)piperidine)methyl)furan-2-yl)phenyl)isoindoline-1-one] |
| 7.68 | 1.29 | 1.27 | 1.52 | 1.01 | CNC(=O)C1(C)CN(Cc2ccc(-c3ccccc3-c3cccc4c3CN(C)C4=O)o2)CCC1O (centres unmarked) [Compound 25] |
| 15.2 | 1.67 | – | – | – | CCC1(C(=O)NC)CCCN(Cc2ccc(-c3ccccc3-c3cccc4c3CN(C)C4=O)o2)C1 (centres unmarked) [Compound 24] |
| 14.1 | 4.51 | – | – | – | CCCNCc1ccc(-c2ccccc2-c2cccc3c2CN(C)C3=O)o1 [Compound 3, 2-methyl-4-(2-(5-((propylamino)methyl)furan-2-yl)phenyl)isoindoline-1-one] |
| 17.4 | 4.43 | – | – | – | COCNCc1ccc(-c2ccccc2-c2cccc3c2CN(C)C3=O)o1 [Compound 4, 2-methyl-4-(2-(5-((methoxymethylamino)methyl)furan-2-yl)phenyl)isoindoline-1-one] |
| 15.8 | 2.61 | – | – | – | C#CCN(C)Cc1ccc(-c2ccccc2-c2cccc3c2CN(C)C3=O)o1 [Compound 6] |
| 11.4 | 3.89 | – | – | – | CN1CCN(CCNCc2ccc(-c3ccccc3-c3cccc4c3CN(C)C4=O)o2)CC1 [Compound 10, 2-methyl-4-(2-(5-(((2-(4-methylpiperazine-1-yl)ethyl)amino)methyl)furan-2-yl)phenyl)isoindoline-1-one] |
| 16.9 | 1.39 | – | – | – | CNCc1ccc(-c2ccccc2-c2cccc3c2CN(C)C3=O)o1 [Compound 1, 2-methyl-4-(2-(5-((methylamino)methyl)furan-2-yl)phenyl)isoindoline-1-one] |
| 18.2 | 4.35 | – | – | – | CN1Cc2c(cccc2-c2ccccc2-c2ccc(CNC3CCCC3)o2)C1=O [Compound 7, 2-methyl-4-(2-(5-((cyclopentylamino)methyl)furan-2-yl)phenyl)isoindoline-1-one] |
| 15 | 2.78 | – | – | – | CN1Cc2c(cccc2-c2ccccc2-c2ccc(CN3CCC(Cc4ccncc4)(C(N)=O)CC3)o2)C1=O [Compound 31, 2-methyl-4-(2-(5-(((4-pyridinylmethyl-4'-carboxamidyl)piperidine)methyl)furan-2-yl)phenyl)isoindoline-1-one] |
| – | 2.2 | – | – | – | CC(C)NCc1ccc(-c2ccccc2-c2cccc3c2CN(C)C3=O)o1 [Compound 8, 2-methyl-4-(2-(5-((isopropylamino)methyl)furan-2-yl)phenyl)isoindoline-1-one] |
| 16.8 | 1.26 | – | – | – | CCNCc1ccc(-c2ccccc2-c2cccc3c2CN(C)C3=O)o1 [Compound 2, 2-methyl-4-(2-(5-((ethylamino)methyl)furan-2-yl)phenyl)isoindoline-1-one] |
| 16.6 | 3.71 | – | – | – | CN1Cc2c(cccc2-c2ccccc2-c2ccc(CN3CCN(S(C)(=O)=O)CC3)o2)C1=O [Compound 11] |
| 14.5 | 2.99 | – | – | – | CN1Cc2c(cccc2-c2ccccc2-c2ccc(CN3CCCCC3)o2)C1=O [Compound 12, 2-methyl-4-(2-(5-(piperidine-1-ylmethyl)furan-2-yl)phenyl)isoindoline-1-one] |
